In brackets after ≈: the same amount, converted by molar mass. Read-outs that look alike come from different tables or passages of the source.

In one assay the test system is Helicobacter pylori J99. The experiment in a line: Paper disc diffusion test, inhibition zone on agar plate. Format: cell-based. Conditions: blank disc 8 mm; for zone of inhibition at 4 mg/disc / zone of inhibition at 1 mg/disc: Helicobacter pylori, J99, read-out: inhibition growth diameter; for inhibition zone diameter (FIG. 5): amount per disc not given. How it is done: Helicobacter pylori J99 (HP J99) used in the embodiments of the present invention was purchased from Bioresource Collection and Research Center (BCRC). The cultivating condition is indicated as follows: the bacteria were inoculated onto CDC medium (CDC anaerobe 5% blood agar, BD) and then incubated at 37° C. for 48 to 72 hours. After incubation, the bacteria were further incubated under micro-aerobic condition (5% O2, 10% CO2, 85% N2). For preparation of solutions with the foregoing compound A or compound B, ethanol was used as solvent to prepare various suitable concentrations.
The test on the inhibitory effect of Helicobacter pylori with the compound A or compound B of the present invention was carried out as follows: Helicobacter pylori was first grown on a CDC agar plate containing sheep blood for 48 to 72 hours. The bacterial colony was scraped with a cotton swab or an inoculation loop and subsequently transferred into a normal saline solution (0.9% NaCl). The optical density was then adjusted to 2 Mcfarland (1-4×10^8/ml bacteria) to obtain a solution with Helicobacter pylori. Subsequently, the foregoing compound A or compound B was weighed out to prepare a series of concentrations (from 10 mg/ml to 100 mg/ml) of test solutions (40 μl) and then 40 μl of the solution were transferred onto blank paper discs. After dryness, the discs were separately stuck to a proper site on the agar plate. After incubation under micro-aerobic condition at 37° C. for 48 hours, observation was made if any inhibition zone emerged on the agar plate.
The compounds of the present invention, which were actually tested, included phenoxyacetic acid, 3,4-dihydrobenzoic acid, 3,5-diamino-benzoic acid, 4-aminophenylacetic acid, 4-nitrobenzoic acid, 2,4-dinitrobenzoic acid, 4-(dimethylamino)benzoic acid, 2-methoxyphenylacetic acid, 3-amino-4-methylbenzoic acid, 4-methylthiobenzoic acid, 4-bromphenylacetic acid, 1,4-cyclohexanedicarboxylic acid, phthalic acid, trans-cinnamic acid, 4-ethylbenzoic acid, phenylacetic acid, benzoic acid, 3-phenylpropionic acid, 4-phenylbutyric acid, 3,4-dimethoxybenzyl alcohol (1) and 4-indophenylboronic acid (2). Ethanol (3) and water (4) were used as control.
For orientation: A growth-free zone around the sample is the usual read-out of agar diffusion tests.

The next assay has as its system susceptible H. pylori. As to conditions: cited from earlier work; for increase of MIC90: ratio of pH 5.5 to 7.0.
Assay [1] deals with H. pylori J99. Put plainly: Minimal bactericidal concentration (MBC). Format: cell-based. Conditions: Helicobacter pylori, kills 99.9% of bacteria of control group, 37° C., 1 to 2 hours. The protocol:
Minimal bactericidal concentration (MBC) was determined by incubating test bacteria with different doses of test compounds for a period of time. Subsequently, the solutions underwent serial dilutions and the bacteria were grown on the agar plate by plate coating. At this moment, the concentration of test compound lost its inhibitory ability because of being diluted via serial dilutions and plate coating and it could be seen from the clear bacterial solution if the bacteria were dead. If bacteria growth was inhibited by the concentration of test compound, the bacteria might continue to grow after the abovementioned treatment and appeared in the form of colonies. In an embodiment of the present invention, H. pylori J99 were pre-cultivated for two days and colonies were scraped and suspended in saline solution. The bacterial concentration was then adjusted to 2 McFarland. After addition of suitable concentrations of benzoic acid and phenylacetic acid and incubation at 37° C. for 1 to 2 hours, the bacterial suspension underwent serial dilutions. 100 μl aliquots were taken from each suspension and applied on CDC plates. The plates were incubated under micro-aerobic condition at 37° C. for two days. The number of bacterial colonies was noted down and the concentration of test compound, that is able to kill 99.9% of bacteria of control group, was used as minimal bactericidal concentration.

The test system of assay [2] is H. pylori J99. Put plainly: Minimum inhibition concentration with different pH values. Format: cell-based, Helicobacter pylori. As to conditions: for MIC90: Helicobacter pylori; for MIC: pH 6.0 to pH 7.0, no change observed.

`O=C(O)c1ccccc1C(=O)O` [phthalic acid]: the zone of inhibition at 4 mg/disc in the assay on Helicobacter pylori J99 (4 mg/disc) turned out to be 12 mm.
Still for that read-out and setting: then `Nc1ccc(CC(=O)O)cc1` [4-aminophenylacetic acid], with 12 mm.
The term MIC90 denotes the lowest concentration that inhibits either 90% of growth or 90% of the strains tested, depending on the study. Consider `Cc1ncc([N+](=O)[O-])n1CCO` [Metronidazole], for which the MIC90 with susceptible H. pylori (pH 5.5), in the assay on susceptible H. pylori (pH 6.0) and with susceptible H. pylori (pH 7.5) was 2 µg/mL (≈ 11.7 µM) throughout.
With `CC1=C(C(=O)O)N2C(=O)[C@@H](NC(=O)[C@H](N)c3ccccc3)[C@H]2SC1` [Cefalexin], the figures for the MIC90 with susceptible H. pylori (pH 5.5), in the assay with susceptible H. pylori (pH 6.0) and in the assay on susceptible H. pylori (pH 7.5) were 32 µg/mL (≈ 92.1 µM), 16 µg/mL (≈ 46.1 µM) and 2 µg/mL (≈ 5.76 µM), respectively.
In the case of `CC[C@H]1OC(=O)[C@H](C)[C@@H](O[C@H]2C[C@@](C)(OC)[C@@H](O)[C@H](C)O2)[C@H](C)[C@@H](O[C@@H]2O[C@H](C)C[C@H](N(C)C)[C@H]2O)[C@](C)(OC)C[C@@H](C)C(=O)[C@H](C)[C@@H](O)[C@]1(C)O` [Clarithromycin], the MIC90 in the assay on susceptible H. pylori (pH 5.5) is 0.25 µg/mL (≈ 0.334 µM); with susceptible H. pylori (pH 6.0) it was 0.06 µg/mL (≈ 0.0802 µM); with susceptible H. pylori (pH 7.5), 0.03 µg/mL (≈ 0.0401 µM). The “increase of MIC90” value in the assay with susceptible H. pylori is on record as “eight”.
Take `O=C(O)/C=C/c1ccccc1` [Trans-cinnamic acid]: the zone of inhibition at 1 mg/disc with Helicobacter pylori J99 (1 mg/disc) turned out to be 25 mm.
Consider `O=C([O-])CC(O)(CC(=O)[O-])C(=O)[O-].O=C([O-])CC(O)(CC(=O)[O-])C(=O)[O-].[Bi+3].[K+].[K+].[K+]` [Bismuth subcitrate], for which the MIC90 in the assay on susceptible H. pylori (pH 6.0) was 8 µg/mL; with susceptible H. pylori (pH 7.5), 16 µg/mL.
For the compound `CC1(C)S[C@@H]2[C@H](NC(=O)[C@H](N)c3ccc(O)cc3)C(=O)N2[C@H]1C(=O)O` [amoxicillin], the “increase of MIC90” value in the assay on susceptible H. pylori was “eight”.
On to `O=C(O)CCCc1ccccc1` [4-phenylbutyric acid], for which, in the assay on Helicobacter pylori J99 (4 mg/disc), the zone of inhibition at 4 mg/disc is 28 mm.
Same read-out and setting: with `Cc1ccc(C(=O)O)cc1N` [3-amino-4-methylbenzoic acid] the figure was 14 mm.
For the compound Penicillin, the MIC90 in the assay on susceptible H. pylori (pH 5.5) is 0.5 µg/mL; with susceptible H. pylori (pH 6.0), 0.5 µg/mL; with susceptible H. pylori (pH 7.5) it was 0.03 µg/mL.
As for `COc1ccc(CO)cc1OC` [3,4-dimethoxybenzyl alcohol], the zone of inhibition at 4 mg/disc in the assay on Helicobacter pylori J99 (4 mg/disc) was 20 mm. For the same compound, the “inhibition zone diameter (FIG. 5)” value in the assay with Helicobacter pylori J99 is 20 mm.
Turning to `CC1(C)S[C@@H]2[C@H](NC(=O)[C@H](N)c3ccccc3)C(=O)N2[C@H]1C(=O)O` [Ampicillin], the MIC90 with susceptible H. pylori (pH 5.5) is 0.5 µg/mL (≈ 1.43 µM); with susceptible H. pylori (pH 6.0), 0.25 µg/mL (≈ 0.715 µM); with susceptible H. pylori (pH 7.5), 0.06 µg/mL (≈ 0.172 µM).
For `O=C(O)c1ccc([N+](=O)[O-])cc1` [4-nitrobenzoic acid], the zone of inhibition at 1 mg/disc with Helicobacter pylori J99 (1 mg/disc) was 70 mm.
Broadly, the MBC is the lowest tested concentration that kills the bacteria rather than only halting them. Read a low MBC as greater bactericidal potency. In the assay on H. pylori J99 [1], `O=C(O)c1ccccc1` [Benzoic acid] showed an MBC of 500 µg/mL (≈ 4090 µM). The zone of inhibition at 4 mg/disc in the assay with Helicobacter pylori J99 (4 mg/disc) was determined as 24 mm. Moreover, the MIC90 with H. pylori J99 [2] (J99, pH 6) stood at 0.06 µg/mL (≈ 0.491 µM); in the assay with H. pylori J99 [2] (J99, pH 6.5), 0.06 µg/mL (≈ 0.491 µM); against H. pylori J99 [2] (J99, pH 7), 0.06 µg/mL (≈ 0.491 µM). The compound further came in with an MIC with H. pylori J99 [2] of 0.06.
For the compound `CN(C)c1ccc(C(=O)O)cc1` [4-(dimethylamino)benzoic acid], the zone of inhibition at 4 mg/disc with Helicobacter pylori J99 (4 mg/disc) was 26 mm.
For the compound `COc1ccccc1CC(=O)O` [2-methoxyphenylacetic acid], the zone of inhibition at 4 mg/disc in the assay with Helicobacter pylori J99 (4 mg/disc) came out at 16 mm.
Regarding `CC[C@H]1OC(=O)[C@H](C)[C@@H](O[C@H]2C[C@@](C)(OC)[C@@H](O)[C@H](C)O2)[C@H](C)[C@@H](O[C@@H]2O[C@H](C)C[C@H](N(C)C)[C@H]2O)[C@](C)(O)C[C@@H](C)C(=O)[C@H](C)[C@@H](O)[C@]1(C)O` [Erythromycin], the MIC90 is 8 µg/mL (≈ 10.9 µM) in the assay on susceptible H. pylori (pH 5.5), 2 µg/mL (≈ 2.73 µM) in the assay with susceptible H. pylori (pH 6.0) and 0.06 µg/mL (≈ 0.0818 µM) in the assay on susceptible H. pylori (pH 7.5).
Take `O=C(O)Cc1ccccc1` [Phenylacetic acid]: the MBC with H. pylori J99 [1] came out at 1000 µg/mL (≈ 7340 µM). Moreover, in the assay on Helicobacter pylori J99 (4 mg/disc), the zone of inhibition at 4 mg/disc was 22 mm. The MIC90 with H. pylori J99 [2] (J99, pH 6.5, read-out: MIC90) is 0.125 µg/mL (≈ 0.918 µM); with H. pylori J99 [2] (J99, pH 7), 0.125 µg/mL (≈ 0.918 µM); in the assay on H. pylori J99 [2] (J99, pH 6.0, read-out: MIC90), 0.125 µg/mL (≈ 0.918 µM). For the same compound, the MIC against H. pylori J99 [2] stood at 0.125.
As for `O=C(O)C1CCC(C(=O)O)CC1` (stereo not drawn) [1,4-cyclohexanedicarboxylic acid], in the assay on Helicobacter pylori J99 (4 mg/disc), the zone of inhibition at 4 mg/disc was 12 mm.
As to `O=C(O)COc1ccccc1` [Phenoxyacetic acid], the zone of inhibition at 4 mg/disc in the assay with Helicobacter pylori J99 (4 mg/disc) was found to be 17 mm.
As to `O=C(O)Cc1ccc(Br)cc1` [4-bromphenylacetic acid], the values for the inhibition growth diameter with Helicobacter pylori J99 (1 mg/disc) and with Helicobacter pylori J99 (4 mg/disc) were 16 mm and 35 mm, respectively.
Consider `O=C(O)CCc1ccccc1` [3-phenylpropionic acid], for which the zone of inhibition at 1 mg/disc with Helicobacter pylori J99 (1 mg/disc) worked out at 14 mm. Moreover, the zone of inhibition at 4 mg/disc with Helicobacter pylori J99 (4 mg/disc) was found to be 34 mm.
`OB(O)c1ccc(I)cc1` [4-indophenylboronic acid] gave an inhibition growth diameter in the assay on Helicobacter pylori J99 (1 mg/disc) of 35 mm. Also, in the assay with Helicobacter pylori J99, the “inhibition zone diameter (FIG. 5)” value is 35 mm.
`Nc1cc(N)cc(C(=O)O)c1` [3,5-diaminobenzoic acid]: the zone of inhibition at 4 mg/disc in the assay with Helicobacter pylori J99 (4 mg/disc) amounted to 12 mm.
Consider `O=C(O)c1ccc([N+](=O)[O-])cc1[N+](=O)[O-]` [2,4-dinitrobenzoic acid], for which the inhibition growth diameter in the assay on Helicobacter pylori J99 (4 mg/disc) is listed as 33 mm.
Regarding `CCc1ccc(C(=O)O)cc1` [4-ethylbenzoic acid], the zone of inhibition at 1 mg/disc in the assay with Helicobacter pylori J99 (1 mg/disc) amounted to 30 mm.
With `O=C(O)c1cn(C2CC2)c2cc(N3CCNCC3)c(F)cc2c1=O` [Ciprofloxacin], the MIC90 in the assay with susceptible H. pylori (pH 5.5) is 2 µg/mL (≈ 6.04 µM); in the assay with susceptible H. pylori (pH 6.0) it was 0.5 µg/mL (≈ 1.51 µM); in the assay with susceptible H. pylori (pH 7.5) it was 0.12 µg/mL (≈ 0.362 µM).
With `Cc1ccc(C(O)=S)cc1` [4-methylthiobenzoic acid], in the assay with Helicobacter pylori J99 (1 mg/disc), the zone of inhibition at 1 mg/disc was 18 mm. Moreover, the zone of inhibition at 4 mg/disc in the assay with Helicobacter pylori J99 (4 mg/disc) was 40 mm.
